“And” between values parts separate entries of the source, which are not always exact repeats. Equal values may be shown once.
Legend:
[1] = system: 22RV1 androgen-resistant human prostate cancer xenograft; assay: Growth delay and survival of 22RV1 xenograft, PR-104 and docetaxel; type: in vivo, CD-1 nude mice
Protocol: (§1) End-point: After treatment, tumor size and body weights were measured regularly and mice were culled either when the average diameter of the tumor reached 15 mm (end-point), the tumor ulcerated or when the body weight change reached −15%. Experiment was ended and all remaining mice culled 120 days after treatment.
(§2) Analysis: End-points will be expressed as TTE50, Median RTV^4 and plotted in Kaplan-Meier Plots and analysed by Log Rank P statistical test.

[2] = system: A2780 human ovarian cancer xenografts; assay: Growth delay and survival of A2780 xenografts, PR-104 and docetaxel; type: in vivo, CD-1 nude mice
Protocol: as §1, §2

[3] = system: H460 human lung cancer xenografts; assay: Growth delay and survival of H460 xenografts, PR-104, docetaxel and schedules thereof; type: in vivo, CD-1 nude mice
Protocol: Specific pathogen-free homozygous nu/nu (CD-1) nu/nu [NIH-III] (Charles River Laboratories, Wilmington, Mass.) were provided by the Animal Resources Unit (University of Auckland) at 7 to 9 weeks of age. Mice were housed in groups of 4-7 in a temperature-controlled room (22±2° C.) with a 12-hour light/dark cycle and were fed ad libitum water and a standard rodent diet (Harlan Teklad diet 2018i). All animals were uniquely identifiable by ear tag number. All animal protocols were approved by the Animal Ethics Committee of the University of Auckland (AEC approval C337).
A single cell suspension was prepared by trypsinisation (1× Trypsin/EDTA) from spinner culture, counted, and suspended in ∝MEM to give required cell concentration, as listed below. Mice were inoculated (100 μL) at a single subcutaneous site (right flank) using a 1 ml syringe with a 26 gauge needle.
Seven days post-inoculation, tumors were measured three times per week until they reached the treatment size (mean diameter 5.8-8.2 mm; average 7.0 mm). Mean tumor diameter was averaged from the longest diameter (length) multiplied by the perpendicular measurement (width). Tumor diameters were estimated when mean diameter was below 5 mm, and measured with electronic callipers when ≧5 mm.
Tumor volume was calculated using the formula:
where L=length and w=width in mm of the carcinoma.
(§3) Excess compound was discarded.
Tumor bearing mice were assigned randomly to treatment groups when tumor diameter reached treatment size. Animals were rejected if xenografts show evidence of: (i) attachment to underlying muscle (due to risk of local invasion), (ii) signs of ulceration, or (iii) indolent tumor growth. Drug administration begins on the day of assignment. In general, 0.7-0.8 of the inoculated population is assigned to the experiment. Drug administration was undertaken as outlined above.
During and after treatment, tumor size and body weights were measured regularly. Animals were culled if (i) the average diameter of the tumor exceeds 15 mm (survival end-point), (ii) body weight loss exceeds 15% of pre-treatment value, (iii) there is evidence of prolonged or excessive morbidity, or (iv) tumor ulceration occurred. Each experiment was terminated at day 120 after treatment initiation.
Kaplan-Meier plots were constructed and median survival was calculated (TTE50). The statistical significance of any differences in overall survival between treatment groups and control was analysed by Log Rank P statistical test. The log-rank test was calculated using XLStat Life (Kovach Computing Services Ltd). The statistic significance in overall survival between each treatment group and control was determined by testing the null hypothesis that the survival curves are identical in the two populations.
The time for individual tumors to increase in volume by 4 fold relative to treatment day-1 (relative tumor volume×4−RTV^4) was recorded. The median RTV^4 is calculated for each group and the difference in RTV^4 between control and treatment groups is described as the Tumor Growth Delay (TGD) in days. RTV^4 values notmalise for any bias in tumor treatment volume on day-1. The RTV^4 of each treatment group is tested for statistical difference from control group by unpaired t-test and Mann Whitney U test (means and medians, respectively).
In circumstances where long-term controls (LTCs) occur, an RTV^4 value equal to the total duration of the experiment is assigned for the purposes of statistical analysis (usually 120 days). Where one or more LTC is present the median RTV^4 of each treatment group is tested for statistical difference from control group by Mann Whitney U test only. The statistical analysis was conducted at a p level of 0.05 (two-tailed). SigmaStat v3.10 was used for the statistical analysis of RTV^4 values. SigmaPlot v9 was used for all graph plots.
Weight loss nadirs (time independent maxima) were recorded for each treatment group.

[4] = system: SiHa human cervical cancer xenograft; assay: Growth delay and survival of SiHa xenograft, PR-104 and docetaxel; type: in vivo, Rag-1^null mice
Excerpt: Analysis: End-points will be expressed as TTE50, Median RTV^4 and plotted in Kaplan-Meier Plots and analysed by Log Rank P statistical test. Weight loss nadir will be compared between schedules.

[5] = system: SiHa cervical cancer xenografts; assay: Excision assay of SiHa xenografts (clonogenic log cell kill); type: in vivo, CD-1 Fox^nu mice; settings: SN 28343 91.2 mg/kg, SN 29303 375 mg/kg; for cell kill versus controls in excision assay (in words): SiHa human cervical tumor xenograft, docetaxel 65 mg/kg i.p.; for Log Cell Kill versus controls (Mean ± SEM): SiHa tumors excised 18 hours after treatment, docetaxel 65 mg/kg, i.p.
Protocol: As for Part 1 except for except where noted below.
as §3
Date, body weights (used to adjust injection volume), tumor diameter, unique identifier (tail markings), body weight, and volume to be injected were recorded. Animals were dosed with the test articles i.p. following a defined treatment schedule:
18 hours after treatment the mice were culled by cervical dislocation and tumors removed by dissection, in a sterile laminar flow hood. Whole tumor weights were recorded. Tumors were minced using scissors or scalpels until a fine minceate was obtained, and up to 500 mg of minceate was transferred into a pre-tiered Falcon®14 ml test tube containing a sterile magnetic spin bar and re-weighed.
Samples were then incubated in 37° C. water bath for 30 min over a magnetic stirrer.
After incubation any undissociated material was allowed to settle for 1 minute. […] Pellets were re-suspended in 10 ml of medium. Cells/ml was determined using an electronic particle counter (Beckman Coulter Electronics, Z2 model). Samples were then diluted to 1×10^5cells/ml and 6-fold serial dilutions made down to 4.6×10^2cells/ml.
1 ml of each sample was plated in triplicate for each dilution into appropriately labelled Falcon® P-60 tissue culture dishes containing 4 ml of αMEM+10% FCS+PS.
Where possible, all plates were counted; those colonies counted=larger than 50 cells, confirmed with the light microscope. TMTC was recorded for those plates where there were too many colonies to count.
The criteria for selecting the best dilution to use for calculating plating efficiency (PE):
Higher dilution count>100 colonies (average); lower dilution 10-100 colonies, use PE from the dilution with fewer colonies.
Higher dilution count >100; lower dilution count <20, use average data from both.
Higher dilution count <100; lower dilution count <20, use PE from the dilution with more colonies.
Higher dilution count <100; lower dilution count >20, use average data from both. Note: For the 10^5 dilution, take as the “lower limit” colony count a total count of 30, (sum of all replicates).

[6] = 22RV1 xenograft, PR-104 652 mg/kg, docetaxel 73 mg/kg, q2w×2
[7] = A2780 xenograft, PR-104 652 mg/kg, docetaxel 73 mg/kg, q2w×2
[8] = H460 xenograft, PR-104 652 mg/kg, docetaxel 73 mg/kg, q2w×2
[9] = Rag-1 mice, PR-104 652 mg/kg, docetaxel 73 mg/kg, q2w×2

CS(=O)(=O)OCCN(CCBr)c1c(C(=O)NCCOP(=O)(O)O)cc([N+](=O)[O-])cc1[N+](=O)[O-] [PR-104, 2-[(2-bromoethyl)-2,4-dinitro-6-[[[2-(phosphonooxy)ethyl]amino]-carbonyl]anilino]ethyl methane sulfonate]
activity against 22RV1 xenograft (in words) ([1]; 22RV1 prostate xenograft model): modest single-agent antitumor activity
Weight Loss Nadir (%) ([1]; 22RV1 xenograft, CD-1 nude mice, PR-104 652 mg/kg, docetaxel 73 mg/kg, i.p., q2w×2): −2.1±0.5%
LTC (long term control) ([1]; 22RV1 xenograft, 120 day experiment): 0
Median RTV^4 [1, 6]: 23 days
TGD (relative gain in median RTV^4 versus control; TGI in text) [1, 6]: 156%
TTE50 [1, 6]: 26.5 days
median tumor growth delay ([1]; 22RV1 xenograft, versus control): 14 days
Gain TTE50 (improvement in median survival) ([1]; 22RV1 xenograft, versus control (9.5 days)): 17 days
Weight Loss Nadir (%) ([2]; A2780 xenograft, CD-1 nude mice, PR-104 652 mg/kg, docetaxel 73 mg/kg, i.p., q2w×2): −6.1±1.2%
LTC (long term control) ([2]; A2780 xenograft, 120 day experiment): 0
Median RTV^4 [2, 7]: 8 days
TGD (relative gain in median RTV^4 versus control) [2, 7]: 78% and 77.8%
TTE50 [2, 7]: 10 days
improvement in median tumor growth delay ([2]; A2780 xenograft, versus control): 3.5 days
Gain TTE50 (improvement in median survival) ([2]; A2780 xenograft, versus control (6 days)): 4 days
activity against A2780 xenograft (in words) ([2]; based on tumor growth delay): no activity
Weight Loss Nadir (%) ([3]; H460 xenograft, CD-1 nude mice, mean body weight loss nadir, PR-104 652 mg/kg, docetaxel 73 mg/kg, i.p., q2w×2): −4.9 ± 1.0%
Unscheduled deaths ([3]; H460 xenograft, female CD-1 nude mice, total dose PR-104 652 mg/kg, docetaxel 73 mg/kg, i.p., q2w×2): 0
LTC (long term control, failed to reach end-point within duration of experiment) ([3]; H460 xenograft, 120 day experiment, PR-104 652 mg/kg, docetaxel 73 mg/kg, q2w×2): 0
Median RTV^4 (median time for tumor volume to increase 4-fold) [3, 8]: 23 days
TGD (tumor growth delay; relative gain in median RTV^4 versus control) [3, 8]: 187.5%
TTE50 (median time for tumor end-point to occur from day of treatment) ([3]; H460 xenograft, end-point >15 mm mean diameter, PR-104 652 mg/kg, docetaxel 73 mg/kg, q2w×2): 29 days
Gain TTE50 (improvement in median survival) ([3]; H460 xenograft, versus control (11 days), PR-104 652 mg/kg, docetaxel 73 mg/kg, q2w×2): 18 days
activity against H460 xenograft (in words) ([3]; tumor growth delay and survival end-points): significant single agent activity
activity against SiHa xenograft (in words) ([4]; Rag-1 mice): modestly active
LTC (long term control) ([4]; Rag-1 mice, 120 day experiment): 0
Weight Loss Nadir (%) ([4]; Rag-1 mice, PR-104 652 mg/kg, docetaxel 73 mg/kg, i.p., q2w×2): −2.2±1.2%
Median RTV^4 [4, 9]: 16 days
TGD (relative gain in median RTV^4 versus control) [4, 9]: 33.3%
TTE50 (median time for tumor end-point to occur) [4, 9]: 25 days
Day of death ([4]; Rag-1 mice, day of unscheduled death): 14^B
improvement in tumor growth delay ([4]; Rag-1 mice, versus control): 4 days
Gain TTE50 (improvement in median survival) ([4]; Rag-1 mice, versus control (17 days)): 8 days
Unscheduled deaths ([4]; female Rag-1 mice, total dose PR-104 652 mg/kg, docetaxel 73 mg/kg, i.p., q2w×2): 1

CS(=O)(=O)OCCN(CCBr)c1ccc([N+](=O)[O-])c(C(=O)NCCCOP(=O)(O)O)c1[N+](=O)[O-] [SN 29303, 2-[2-bromoethyl)-2,4-dinitro-3-({[3-(phosphonooxy)propyl]amino}carbonyl) anilino]ethyl methanesulfonate]
cell kill versus controls in excision assay (in words) [5]: moderate and significant cell killing
Log Cell Kill versus controls (Mean ± SEM) [5]: 0.770

O=C(NCCOP(=O)(O)O)c1cc([N+](=O)[O-])cc([N+](=O)[O-])c1N(CCBr)CCBr [SN 28343, 2-[Bis(2-bromoethyl)amino]-N-(2-hydroxyethyl)-3,5-dinitrobenzamide phosphate ester]
cell kill versus controls in excision assay (in words) [5]: moderate and significant cell killing
Log Cell Kill versus controls (Mean ± SEM) [5]: 0.821
